The values below come from patent US11384063B2, “Modulators of estrogen receptor proteolysis and associated methods of use” (Arvinas Operations, Inc., priority 2017, dated 2022).

Where two headings read alike, the source gives them in different places.

What all share (type): cell-based
In assay [1] the target is T1, ERα (Homo sapiens, UniProt P03372).
T1 sequence (P03372 1-595): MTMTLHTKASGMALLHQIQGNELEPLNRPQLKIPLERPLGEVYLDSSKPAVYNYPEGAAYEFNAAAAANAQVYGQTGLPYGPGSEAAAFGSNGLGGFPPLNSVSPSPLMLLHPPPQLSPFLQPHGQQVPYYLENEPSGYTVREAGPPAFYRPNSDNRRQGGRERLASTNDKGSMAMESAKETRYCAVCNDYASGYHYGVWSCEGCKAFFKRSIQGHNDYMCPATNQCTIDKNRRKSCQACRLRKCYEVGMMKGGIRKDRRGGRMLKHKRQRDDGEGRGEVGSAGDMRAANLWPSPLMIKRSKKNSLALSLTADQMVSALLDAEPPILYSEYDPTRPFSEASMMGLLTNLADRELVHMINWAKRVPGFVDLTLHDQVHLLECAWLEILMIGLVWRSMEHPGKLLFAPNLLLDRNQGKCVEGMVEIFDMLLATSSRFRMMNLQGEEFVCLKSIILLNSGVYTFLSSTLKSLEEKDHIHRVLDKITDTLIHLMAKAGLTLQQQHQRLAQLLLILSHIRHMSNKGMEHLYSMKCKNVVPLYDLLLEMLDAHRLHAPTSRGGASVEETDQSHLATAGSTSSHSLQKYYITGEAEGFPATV
Briefly: ERE luciferase reporter gene assay in T47D-KBluc cells (target engagement). On the set-up: T47D human breast cancer cells stably transfected with estrogen responsive element/promoter/luciferase reporter gene; host or cells: T47D-KBluc cells. To be noted: 10% FBS, 24 hours. Summed up: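 T47D-KBluc breast cancer cells, which carry a stable ERE-luciferase reporter, were grown in RPMI with 10% FBS (about 10 pM estrogen) and exposed to PROTACs for 24 h. The 12-point, 3-fold series ran from 300 nM to 2 pM. Luciferase was read after lysis, and IC50 was fitted from duplicates.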

For assay [2], the target named is T1, ERα. Briefly: Estrogen receptor-alpha (ERα) degradation assay in MCF-7 cells using western blot. Details: assessed for their activity in degrading ERα in MCF-7 cells via western blot; endogenous in cells; host or cells: MCF7 cells. The conditions noted are these: ER-alpha degradation, MCF7 cells, 3 days of incubation. The protocol: Compounds prepared in this application were also analyzed for the degradation of ERα in MCF7 and T47D cells.
Estrogen Receptor-Alpha (ERα) Degradation Assay in MCF-7 Cells Using Western Blot Method for Table 4.
The exemplary novel ERα degraders were assessed for their activity in degrading ERα in MCF-7 cells via western blot. The assay was carried out in the presence of 10% fetal bovine serum (FBS) or high percentage of human or mouse serum.
MCF7 cells were grown in DMEM/F12 with 10% fetal bovine serum and seeded at 24,000 cells per well in 100 μl into 96-well clear tissue culture plates. The following day, the cells were treated with PROTACs in a […] concentration curve with 100 nM being the top concentration and serial dilutions to make the other concentrations (30 nM, 10 nM, 3 nM, 1 nM, and 0.3 nM). At all concentrations, 0.01% DMSO is the final concentration in the well. The following day, the plates are aspirated, washed with 50 μl of cold PBS. The cells are lysed with 50 μl/well 4° C. Cell Lysis Buffer (Catalog #9803; Cell Signaling Technology, Danvers, Mass.) (20 mM Tris-HCL (pH 7.5), 150 mM NaCl, 1 mM […], 1 mM EGTA, 1% Triton, 2.5 mM sodium pyrophosphate, 1 mM B-glycerophosphate, 1 mM sodium vanadate, 1 ug/ml leupeptin). Lysates were clarified at 16,000×g for 10 minutes, and 2 μg of protein was subjected to SDS-PAGE analysis and followed by immunoblotting according to standard protocols. The antibodies used were ERα (Cell Signaling Technologies Catalog #8644), and Tubulin (Sigma Catalog #T9026; St. Louis, Mo.). Detection reagents were Clarity Western ECL substrate (Bio-Rad Catalog #170-5060; Hercules, Calif.).
Alternatively, MCF7 cells were grown in DMEM/F12 with 10% fetal bovine serum and seeded at 24,000 cells per well in 500 μl in 24-well clear tissue culture plates. The following day, the cells were treated with PROTACs in a 5-point concentration curve (100 nM, 33 nM, 11 nM, 3.7 nM, and 1.2 nM) in the presence of 0.01% DMSO. After 72 hours, the wells are aspirated and washed with 500 μl of PBS. The cells are lysed with 100 μl/well 4° C. Cell Lysis Buffer (Catalog #9803; Cell Signaling Technology, Danvers, M A) (20 mM Tris-HCL (pH 7.5), 150 mM NaCl, 1 mM Na2EDTA, 1 mM EGTA, 1% Triton, 2.5 mM sodium pyrophosphate, 1 mM B-glycerophosphate, 1 mM sodium vanadate, 1 ug/ml leupeptin). Lysates were clarified at 16,000×g for 10 minutes, and 2 μg of protein was subjected to SDS-PAGE analysis and followed by immunoblotting according to standard protocols. The antibodies used were ER(X (Cell Signaling Technologies Catalog #8644), and Tubulin (Sigma Catalog #T9026; St. Louis, Mo.). Detection reagents were Clarity Western ECL substrate (Bio-Rad Catalog #170-5060; Hercules, Calif.).

The target of assay [3] is T1, ERα. Briefly: Estrogen receptor-alpha (ERα) degradation assay in MCF7 cells using In-Cell Western assay. To be noted: ER-alpha degradation in MCF7 cells, 5 days of incubation. Details: assessed for their activity in degrading ERα in MCF-7 cells via western blot; endogenous in cells; host or cells: MCF7 cells. The method in brief:
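MCF7 cells treated 3 or 5 days at 37 °C with 11-point 3-fold dilutions from 1 μM final top. Fixed cells immunostained for ERα and tubulin, read by infrared imaging at 700/800 nm. ERα normalized to tubulin then to DMSO vehicle; DC50 and Dmax from 4-parameter curve fit.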

Where [4] appears, read: Table 2 VHL centric PROTACs, read-out: IC50.

In the case of `Cc1ncsc1-c1ccc(CNC(=O)[C@@H]2C[C@@H](O)CN2C(=O)C(c2cc(OCCN3CCN(CCOc4ccc(Oc5c(-c6ccc(Br)cc6)sc6cc(O)ccc56)cc4)CC3)no2)C(C)C)cc1` (stereo in doubt) [Compound 164, (2S,4R)-1-((S)-2-(3-(2-(4-(2-(4-((2-(4-bromophenyl)-6-hydroxybenzo[b]thiophen-3-yl)oxy)phenoxy)ethyl)piperazin-1-yl)ethoxy)isoxazol-5-yl)-3-methylbutanoyl)-4-hydroxy-N-(4-(4-methylthiazol-5-yl)benzyl)pyrrolidine-2-carboxamide], in assay [1] (setting [4]), the IC50 was 2.7 nM. In addition, in assay [2], the DC50 lay within 1 to 10 nM and the Dmax lay within 50 to 75%.
On to `Cc1ncsc1-c1ccc([C@H](C)NC(=O)[C@@H]2C[C@@H](O)CN2C(=O)[C@@H](NC(=O)COCCOCCOCCOc2ccc(Oc3c(-c4ccc(F)cc4)sc4cc(O)ccc34)cc2)C(C)(C)C)cc1` [Compound 111, (2S,4R)-1-((S)-2-tert-butyl-14-(4-(2-(4-fluorophenyl)-6-hydroxybenzo[b]thiophen-3-yloxy)phenoxy)-4-oxo-6,9,12-trioxa-3-azatetradecane)-4-hydroxy-N—((S)-1-(4-(4-methylthiazol-5-yl)phenyl)ethyl)pyrrolidine-2-carboxamide], for which the IC50 in assay [1] (setting [4]) came to 0.6 nM. Moreover, in assay [2], the DC50 was < 1 nM and the Dmax was > 75%.
As to `Cc1ncsc1-c1ccc(CNC(=O)[C@@H]2C[C@@H](O)CN2C(=O)[C@@H](NC(=O)COCCOC2CN(CCOc3ccc(Oc4c(-c5ccc(F)cc5)sc5cc(O)ccc45)cc3)C2)C(C)(C)C)cc1` [Compound 117, (2S,4R)-1-((S)-2-(2-(2-(1-(2-(4-(2-(4-fluorophenyl)-6-hydroxybenzo[b]thiophen-3-yloxy)phenoxy)ethyl)azetidin-3-yloxy)ethoxy)acetamido)-3,3-dimethylbutanoyl)-4-hydroxy-N-(4-(4-methylthiazol-5-yl)benzyl)pyrrolidine-2-carboxamide], the concentration for half-maximal inhibition (IC50) in assay [1] (setting [4]) came out at 3.3 nM. For the same molecule, in assay [2], the DC50 is 1 to 10 nM and the Dmax lay within 50 to 75%.
For `Cc1ncsc1-c1ccc(CNC(=O)[C@@H]2C[C@@H](O)CN2C(=O)[C@@H](NC(=O)COCCN2CCN(CCOc3ccc(Oc4c(-c5ccc(F)cc5)sc5cc(O)ccc45)cc3)CC2)C(C)(C)C)cc1` [Compound 118, (2S,4R)-1-((S)-2-(2-(2-(4-(2-(4-((2-(4-fluorophenyl)-6-hydroxybenzo[b]thiophen-3-yl)oxy)phenoxy)ethyl)piperazin-1-yl)ethoxy)acetamido)-3,3-dimethylbutanoyl)-4-hydroxy-N-(4-(4-methylthiazol-5-yl)benzyl)pyrrolidine-2-carboxamide], in that order: 0.4 nM, < 1 nM and > 75%.
Consider `Cc1ncsc1-c1ccc([C@H](C)NC(=O)[C@@H]2C[C@@H](O)CN2C(=O)[C@@H](NC(=O)COCCOCCOCCOc2ccc(Oc3c(-c4ccc(Cl)cc4)sc4cc(O)ccc34)cc2)C(C)(C)C)cc1` [Compound 119, (2S,4R)-1-((S)-2-tert-butyl-14-(4-(2-(4-chlorophenyl)-6-hydroxybenzo[b]thiophen-3-yloxy)phenoxy)-4-oxo-6,9,12-trioxa-3-azatetradecane)-4-hydroxy-N-((S)-1-(4-(4-methylthiazol-5-yl)phenyl)ethyl)pyrrolidine-2-carboxamide], for which the IC50 in assay [1] (setting [4]) was 1.1 nM. Besides, in assay [2], the DC50 fell in the range of 1 to 10 nM and the Dmax is > 75%.
For `Cc1ncsc1-c1ccc(CNC(=O)[C@@H]2C[C@@H](O)CN2C(=O)[C@@H](NC(=O)Cc2ccc(-c3ccn(CCOc4ccc(Oc5c(-c6ccc(F)cc6)sc6cc(O)ccc56)cc4)n3)cc2)C(C)(C)C)cc1` [Compound 121, (2S,4R)-1-[(2S)-2-[2-(4-[1-[2-(4-[[2-(4-fluorophenyl)-6-hydroxy-1-benzothiophen-3-yl]oxy]phenoxy)ethyl]-1H-pyrazol-3-yl]phenyl)acetamido]-3,3-dimethylbutanoyl]-4-hydroxy-N-[[4-(4-methyl-1,3-thiazol-5-yl)phenyl]methyl]pyrrolidine-2-carboxamide] the same measures were 1 nM, 1 to 10 nM and > 75%.
As to `Cc1ncsc1-c1ccc([C@H](C)NC(=O)[C@@H]2C[C@@H](O)CN2C(=O)[C@@H](NC(=O)COCCOCCOCCOc2ccc(Oc3c(-c4ccc(Br)cc4)sc4cc(O)ccc34)cc2)C(C)(C)C)cc1` [Compound 126, (2S,4R)-1-((S)-14-(4-(2-(4-bromophenyl)-6-hydroxybenzo[b]thiophen-3-yloxy)phenoxy)-2-tert-butyl-4-oxo-6,9,12-trioxa-3-azatetradecane)-4-hydroxy-N-((S)-1-(4-(4-methylthiazol-5-yl)phenyl)ethyl)pyrrolidine-2-carboxamide], in assay [1] (setting [4]), the IC50 came out at 0.2 nM. Moreover, in assay [2], the DC50 is < 1 nM and the Dmax was > 75%.
For `Cc1ncoc1-c1ccc([C@H](C)NC(=O)[C@@H]2C[C@@H](O)CN2C(=O)[C@@H](NC(=O)COCCOCCOCCOc2ccc(Oc3c(-c4ccc(Br)cc4)sc4cc(O)ccc34)cc2)C(C)(C)C)cc1` [Compound 127, (2S,4R)-1-((S)-14-(4-(2-(4-bromophenyl)-6-hydroxybenzo[b]thiophen-3-yloxy)phenoxy)-2-tert-butyl-4-oxo-6,9,12-trioxa-3-azatetradecane)-4-hydroxy-N-((S)-1-(4-(4-methyloxazol-5-yl)phenyl)ethyl)pyrrolidine-2-carboxamide] the same measures were 0.2 nM, < 1 nM and > 75%.
With `O=C1CCC(N2C(=O)c3ccc(N4CCN(CC5CCN(c6ccc(Oc7c(-c8ccc(O)cc8)sc8cc(O)ccc78)cc6)CC5)CC4)cc3C2=O)C(=O)N1` (stereo not drawn) [Compound 245, 2-(2,6-dioxo-3-piperidyl)-5-[4-[[1-[4-[6-hydroxy-2-(4-hydroxyphenyl)benzothiophen-3-yl]oxyphenyl]-4-piperidyl]methyl]piperazin-1-yl]isoindoline-1,3-dione], the IC50 in assay [1] (Table 3 cereblon centric PROTACs, read-out: ER-α Luciferase IC50) stood at 0.53 nM. Also, in assay [3], the DC50 was 10 to 100 nM and the Dmax is 50 to 75%.
